# Peptide text beside a SMILES is read from it.
# System: male C3H mice
# Test: C3H Mouse Model, topical study of hair growth
# Type: in vivo
# Description: The effect of the compounds of the present invention on hair growth is assessed using male C3H mice (Harlan Sprague Dawley, Inc., Indianapolis, Ind.) as an animal model. The mice are 52 days old at the time of first does. They are individually housed in "shoe box" cages (Scientific Products, Chicago, Ill.). Ten mice are used per test group.
# Not more than four hours before treatment, the animals are anesthetized with an intraperitoneal mixture of acepromazine maleate (1.6 mg/kg), xylazine (4.8 mg/kg) and ketamine hydrochloride (64 mg/kg) dosed in a saline vehicle in a total volume of 0.2 ml per 25 g mouse. The entire back of the animal is clipped closely with a small animal clipper (Wahl model 8900, Wahl Clipper Corp., Sterling, Ill.). […]
# On days of photography, the animals are photographed prior to dosing. […] Results are expressed as the percent of shaved area responding with anagen skin, and the percent of shaved area responding with hair growth.
# A positive response, i.e., an increase of greater than 10% over control, indicates the potential of the test compound to regulate hair growth. Accordingly, when hair growth peptides as herein defined, are assessed either individually or in combination as a test compound in the C3H Mouse Model, an increase over control of at least 10%, preferably 40%, more preferably 70%, after four weeks treatment will be obtained. […]
smiles,measurement,setting,value
"N[C@@H](Cc1c[nH]cn1)C(=O)NCC(=O)NCC(=O)O [His-Gly-Gly, Histidyl-glycyl-glycine] (H-His-Gly-Gly-OH)",mean percent of shaved area that is covered with hair at Day 25,"topical, 1.0% in Tris buffer/propylene glycol/glycerine (67/30/3, pH 8.0) vehicle, after 4 weeks of treatment, mean of 10 mice",44.3%
same,increase in hair growth,"versus vehicle control, Day 25, topical 1.0%",96%

# Reference: US5252559A, “His-Gly-Gly peptide and derivatives thereof for hair growth” (The Procter & Gamble Company, priority 1991, dated 1993)
